Source: article PMC2808025 (Current Chemical Genomics, 2009)
Where “and” joins values, the source holds several entries; their conditions need not be identical. Equal entries are not always repeated. Where two headings read alike, the source gives them in different places.

Key:
PAP = conditions: cited from earlier work
human PAP = molecular target: T1, human PAP (Homo sapiens, UniProt P15309); format: biochemical
T1 sequence (P15309 33-386): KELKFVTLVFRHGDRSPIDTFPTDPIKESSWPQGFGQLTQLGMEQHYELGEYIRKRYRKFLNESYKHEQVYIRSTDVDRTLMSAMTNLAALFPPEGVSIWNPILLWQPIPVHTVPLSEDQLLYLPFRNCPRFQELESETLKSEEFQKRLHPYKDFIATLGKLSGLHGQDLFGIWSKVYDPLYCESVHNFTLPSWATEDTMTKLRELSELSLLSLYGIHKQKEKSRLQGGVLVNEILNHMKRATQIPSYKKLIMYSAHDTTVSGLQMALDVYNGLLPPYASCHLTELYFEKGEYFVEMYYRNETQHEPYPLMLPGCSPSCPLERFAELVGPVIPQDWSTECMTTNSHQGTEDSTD

O=P(O)(O)C(NCc1ccccc1)c1ccccc1 (stereo not drawn) [BABPA, α-benzylaminobenzylphosphonic acid]
IC50 (PAP; known PAP inhibitor): nanomolar range

Cc1cc(=O)oc2c(F)c(OP(=O)(O)O)c(F)cc12 [DiFMUP, difluoro-4-methylumbelliferyl phosphate]
Km (human PAP): 918 µM

O=C([O-])[C@H](O)[C@@H](O)C(=O)[O-].[Na+].[Na+] [sodium L-(+)-tartrate]
Hill slope (human PAP): 0.96 and 0.89
IC50 (human PAP): 53 µM and 40 µM
IC50 (PAP; read-out: published IC50): 29 µM
